What was measured:
Type in all cases: biochemical
CDK3/cyclinE (h) = CDK3/cyclinE (h) (Homo sapiens, UniProt Q00526); assay: Kinase profiling C3.5 CDK3/cyclinE human; conditions: test concentration of 10^−6 M
Method in brief: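 Human CDK3/cyclinE (5-10 mU) phosphorylated 0.1 mg/ml histone H1 in 8 mM MOPS pH 7.0, 0.2 mM EDTA and 10 mM MgAcetate with [γ-33P]ATP. Reaction ran 40 min at room temperature and was stopped with phosphoric acid. Substrate-bound radioactivity was captured on P30 filtermat and measured by scintillation counting.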

GSK-3α = GSK-3α (Homo sapiens, UniProt P49840); assay: GSK-3 kinase assay (C1), GSK-3α; conditions: 1 μM ATP; for IC50: read-out: C1 Score α
GSK-3α, sequence (P49840 whole entry, species assumed): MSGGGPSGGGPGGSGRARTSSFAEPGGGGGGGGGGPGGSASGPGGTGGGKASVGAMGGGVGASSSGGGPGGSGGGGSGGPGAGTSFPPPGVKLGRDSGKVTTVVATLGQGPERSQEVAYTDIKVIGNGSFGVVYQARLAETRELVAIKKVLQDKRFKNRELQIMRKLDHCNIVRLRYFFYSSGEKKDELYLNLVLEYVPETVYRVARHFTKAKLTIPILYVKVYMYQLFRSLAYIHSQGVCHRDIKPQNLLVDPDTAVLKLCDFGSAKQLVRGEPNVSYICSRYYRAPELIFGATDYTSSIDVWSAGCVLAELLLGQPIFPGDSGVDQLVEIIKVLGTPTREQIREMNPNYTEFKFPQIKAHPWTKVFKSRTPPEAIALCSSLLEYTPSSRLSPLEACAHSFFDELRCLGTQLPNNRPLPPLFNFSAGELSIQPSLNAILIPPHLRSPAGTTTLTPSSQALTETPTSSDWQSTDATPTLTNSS
Method in brief: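 Radiometric SPA at room temperature in 25 mM Tris pH 7.4 with 10 mM MgCl2, 1 mM DTT, 5.7 ng/μl GSK-3β or 0.25 ng/μl GSK-3α, 5 μM biotinylated CREB peptide and 1 μM ATP plus ^33P-ATP. Stopped after 1 h; IC50 from dose-response versus no-compound control, reported as pIC50 score bands.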

CDK5/p35 human = CDK5/p35 human (Homo sapiens, UniProt Q00535); assay: Kinase profiling C3.6 CDK5/p35 human; conditions: CDK5/p35, test concentration of 10^−6 M
CDK5/p35 human, sequence (Q00535 whole entry): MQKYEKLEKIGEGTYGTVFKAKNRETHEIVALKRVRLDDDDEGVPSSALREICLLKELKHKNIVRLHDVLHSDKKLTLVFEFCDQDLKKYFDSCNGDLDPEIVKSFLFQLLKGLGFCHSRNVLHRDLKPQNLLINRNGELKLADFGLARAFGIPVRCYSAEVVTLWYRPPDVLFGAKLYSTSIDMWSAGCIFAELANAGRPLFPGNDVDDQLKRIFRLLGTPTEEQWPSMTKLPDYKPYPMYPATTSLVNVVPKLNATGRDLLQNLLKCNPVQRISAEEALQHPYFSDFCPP
CDK5/p35 human, sequence (Q15078 whole entry partner): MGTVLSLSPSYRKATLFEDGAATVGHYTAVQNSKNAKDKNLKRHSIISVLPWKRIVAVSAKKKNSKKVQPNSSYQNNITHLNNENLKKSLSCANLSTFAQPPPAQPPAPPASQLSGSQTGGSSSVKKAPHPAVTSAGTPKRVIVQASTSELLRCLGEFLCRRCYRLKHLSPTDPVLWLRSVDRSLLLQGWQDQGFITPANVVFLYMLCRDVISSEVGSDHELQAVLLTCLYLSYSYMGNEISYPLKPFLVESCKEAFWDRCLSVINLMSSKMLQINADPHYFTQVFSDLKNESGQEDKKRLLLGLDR
Method in brief: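 Radiometric filter-binding assay: human CDK5/p35 (5-10 mU) with 0.1 mg/ml histone H1 substrate in 8 mM MOPS pH 7.0, 0.2 mM EDTA, 10 mM Mg acetate and [γ-33P]ATP. Incubated 40 min at room temperature, stopped with phosphoric acid. Substrate 33P incorporation counted on P30 filtermat by scintillation.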

CDK7/cyclinH/MAT1 (h) = CDK7/cyclinH/MAT1 (h) (Homo sapiens, UniProt P50613); assay: Kinase profiling C3.8 CDK7/cyclinH/MAT1 human; conditions: CDK7/cyclinH/MAT1, test concentration of 10^−6 M
CDK7/cyclinH/MAT1 (h), sequence (P50613 whole entry): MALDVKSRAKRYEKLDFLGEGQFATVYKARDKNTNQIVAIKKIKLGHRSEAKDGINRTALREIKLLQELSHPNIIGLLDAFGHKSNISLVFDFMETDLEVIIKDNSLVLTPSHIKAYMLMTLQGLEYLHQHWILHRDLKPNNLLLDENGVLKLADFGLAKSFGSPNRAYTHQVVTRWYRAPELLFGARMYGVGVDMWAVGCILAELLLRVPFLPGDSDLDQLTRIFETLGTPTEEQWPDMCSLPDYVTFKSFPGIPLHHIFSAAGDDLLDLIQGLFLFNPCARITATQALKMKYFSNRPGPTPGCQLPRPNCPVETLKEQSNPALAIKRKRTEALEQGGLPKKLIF
CDK7/cyclinH/MAT1 (h), sequence (P51946 whole entry partner): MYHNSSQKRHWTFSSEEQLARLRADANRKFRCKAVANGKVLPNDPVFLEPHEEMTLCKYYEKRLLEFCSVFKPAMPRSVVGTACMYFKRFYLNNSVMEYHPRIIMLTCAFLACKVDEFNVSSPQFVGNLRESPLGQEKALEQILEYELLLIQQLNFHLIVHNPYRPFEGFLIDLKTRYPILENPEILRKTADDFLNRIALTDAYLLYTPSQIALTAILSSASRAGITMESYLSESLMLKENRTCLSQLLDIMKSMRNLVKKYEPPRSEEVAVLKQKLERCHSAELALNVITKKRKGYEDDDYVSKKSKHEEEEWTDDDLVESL
CDK7/cyclinH/MAT1 (h), sequence (P51948 whole entry partner): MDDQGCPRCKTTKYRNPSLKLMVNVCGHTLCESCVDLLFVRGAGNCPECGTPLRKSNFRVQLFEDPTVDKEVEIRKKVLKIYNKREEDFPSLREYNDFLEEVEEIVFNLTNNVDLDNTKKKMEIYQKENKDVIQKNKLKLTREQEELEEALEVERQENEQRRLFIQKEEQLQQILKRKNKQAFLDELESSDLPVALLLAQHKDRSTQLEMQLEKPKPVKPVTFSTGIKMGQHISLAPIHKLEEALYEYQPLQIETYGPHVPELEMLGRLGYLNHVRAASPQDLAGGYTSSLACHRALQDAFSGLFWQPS
Method in brief: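 Human CDK7/cyclinH/MAT1 (5-10 mU) incubated 40 min at room temperature in 8 mM MOPS pH 7.0, 0.2 mM EDTA, 10 mM Mg acetate, 500 μM peptide substrate and [γ-^33P]ATP. Stopped with phosphoric acid; substrate phosphorylation measured by filter binding and scintillation counting.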

CDK2/cyclinE (h) = CDK2/cyclinE (h) (Homo sapiens, UniProt P24941); assay: Kinase profiling C3.4 CDK2/cyclinE human; conditions: test concentration of 10^−6 M
Method in brief: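 Radiometric filter-binding assay: 5-10 mU enzyme with 0.1 mg/ml histone H1 in 8 mM MOPS pH 7.0, 0.2 mM EDTA, 10 mM Mg acetate and [γ-33P]ATP. Incubated 40 min at room temperature, stopped with phosphoric acid. Substrate-bound 33P counted on P30 filtermat.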

CDK1/cyclinB (h) = CDK1/cyclinB (h) (Homo sapiens, UniProt P06493); assay: Kinase profiling C3.2 CDK1/cyclinB human; conditions: test concentration of 10^−6 M
CDK1/cyclinB (h), sequence (P06493 whole entry): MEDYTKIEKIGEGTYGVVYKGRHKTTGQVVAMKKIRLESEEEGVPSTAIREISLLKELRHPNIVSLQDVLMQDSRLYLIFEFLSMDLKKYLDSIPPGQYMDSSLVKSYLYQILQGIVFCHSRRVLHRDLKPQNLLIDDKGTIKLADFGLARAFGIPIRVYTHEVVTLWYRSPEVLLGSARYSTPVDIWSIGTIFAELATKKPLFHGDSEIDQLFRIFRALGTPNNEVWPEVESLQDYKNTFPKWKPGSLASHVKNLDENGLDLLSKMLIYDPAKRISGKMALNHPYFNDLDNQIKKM
CDK1/cyclinB (h), sequence (P14635 whole entry partner): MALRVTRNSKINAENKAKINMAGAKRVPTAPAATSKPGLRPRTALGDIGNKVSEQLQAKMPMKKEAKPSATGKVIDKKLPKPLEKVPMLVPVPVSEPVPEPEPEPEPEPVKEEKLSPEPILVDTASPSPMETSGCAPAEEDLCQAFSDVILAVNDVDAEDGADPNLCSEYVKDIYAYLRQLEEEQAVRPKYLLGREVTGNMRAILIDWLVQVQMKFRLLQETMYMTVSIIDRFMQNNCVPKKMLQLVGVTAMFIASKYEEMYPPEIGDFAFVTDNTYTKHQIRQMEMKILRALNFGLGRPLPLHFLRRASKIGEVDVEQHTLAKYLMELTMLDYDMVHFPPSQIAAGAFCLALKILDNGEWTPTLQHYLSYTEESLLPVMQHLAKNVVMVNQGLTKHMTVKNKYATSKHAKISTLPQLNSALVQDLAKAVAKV
Method in brief: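 Radiometric filter-binding assay: human CDK1/cyclinB (5-10 mU) with 0.1 mg/ml histone H1 substrate and [γ-33P]ATP in 8 mM MOPS pH 7.0, 10 mM Mg acetate, 40 min at room temperature. Stopped with phosphoric acid; substrate-bound 33P counted on P30 filtermat by scintillation.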

Row | C3.5 score (CDK3/cyclinE (h)) | IC50 (GSK-3α) | C3.6 score (CDK5/p35 human) | C3.8 score (CDK7/cyclinH/MAT1 (h)) | C3.4 score (CDK2/cyclinE (h)) | C3.2 score (CDK1/cyclinB (h)) | C1 Score α (GSK-3α) | SMILES
1 | 4 (Score 4 = >80% inhibition) | < 10 nM | 4 (Score 4 = >80% inhibition) | 2 (Score 2 = 30-60% inhibition) | 4 (Score 4 = >80% inhibition) | 4 (Score 4 = >80% inhibition) | – | CN1CCCc2cc(ccn2)-c2ncnc(n2)Nc2cccc(c2)CNC(=O)C1 [Compound 7]
2 | 4 (Score 4 = >80% inhibition) | < 10 nM | 4 (Score 4 = >80% inhibition) | 4 (Score 4 = >80% inhibition) | 4 (Score 4 = >80% inhibition) | 4 (Score 4 = >80% inhibition) | – | CN1CC(=O)NCC#Cc2cc(ccn2)-c2ncnc(n2)Nc2cccc(c2)C1 [Compound 1]
3 | 2 (Score 2 = 30-60% inhibition) | 10 to 100 nM | 1 (Score 1 = 10-30% inhibition) | 2 (Score 2 = 30-60% inhibition) | 1 (Score 1 = 10-30% inhibition) | 2 (Score 2 = 30-60% inhibition) | – | O=C1NCCCc2cc(ccn2)-c2ncnc(n2)Nc2cccc(c2)CN2C[C@H](O)C[C@@H]12 [Compound 14]
4 | 3 (Score 3 = 60-80% inhibition) | < 10 nM | 3 (Score 3 = 60-80% inhibition) | 2 (Score 2 = 30-60% inhibition) | 4 (Score 4 = >80% inhibition) | 4 (Score 4 = >80% inhibition) | – | O=C1CN2CCN(CC2)Cc2cccc(c2)Nc2ncnc(n2)-c2ccnc(c2)CCCN1 [Compound 36]
5 | 4 (Score 4 = >80% inhibition) | < 10 nM | 4 (Score 4 = >80% inhibition) | 3 (Score 3 = 60-80% inhibition) | 4 (Score 4 = >80% inhibition) | 4 (Score 4 = >80% inhibition) | – | CCN1CCCc2cc(ccn2)-c2ncnc(n2)Nc2cccc(c2)CCNC(=O)C1 [Compound 30]
6 | 2 (Score 2 = 30-60% inhibition) | 100 to 1000 nM | 1 (Score 1 = 10-30% inhibition) | 2 (Score 2 = 30-60% inhibition) | 2 (Score 2 = 30-60% inhibition) | 1 (Score 1 = 10-30% inhibition) | – | CN1CCCC(=O)NCCCc2cc(ccn2)-c2ncnc(n2)Nc2cccc(c2)C1 [Compound 13]
7 | 4 (Score 4 = >80% inhibition) | < 10 nM | 4 (Score 4 = >80% inhibition) | 4 (Score 4 = >80% inhibition) | 4 (Score 4 = >80% inhibition) | 4 (Score 4 = >80% inhibition) | – | CN1CC(=O)NCCCc2cc(ccn2)-c2ncnc(n2)Nc2cccc(c2)C1 [Compound 10]
8 | 4 (Score 4 = >80% inhibition) | – | 3 (Score 3 = 60-80% inhibition) | 2 (Score 2 = 30-60% inhibition) | 4 (Score 4 = >80% inhibition) | 4 (Score 4 = >80% inhibition) | 4 (Score 4=pIC50 value>8) | CN1CC(=O)NCCCc2cc(ccn2)-c2ncnc(n2)Nc2cccc(c2)C1 [Compound 8]
9 | 4 (Score 4 = >80% inhibition) | < 10 nM | 4 (Score 4 = >80% inhibition) | 3 (Score 3 = 60-80% inhibition) | 4 (Score 4 = >80% inhibition) | 4 (Score 4 = >80% inhibition) | – | CN1CC(=O)NCCCc2cc(ccn2)-c2ncnc(n2)Nc2cc(Cl)cc(c2)C1 [Compound 33]
10 | 3 (Score 3 = 60-80% inhibition) | – | 2 (Score 2 = 30-60% inhibition) | 2 (Score 2 = 30-60% inhibition) | 4 (Score 4 = >80% inhibition) | 4 (Score 4 = >80% inhibition) | 4 (Score 4=pIC50 value>8) | O=C1CN2CCN(CC2)Cc2cccc(c2)Nc2ncnc(n2)-c2ccnc(c2)CCCN1 [Compound 9]
11 | 4 (Score 4 = >80% inhibition) | < 10 nM | 4 (Score 4 = >80% inhibition) | 3 (Score 3 = 60-80% inhibition) | 4 (Score 4 = >80% inhibition) | 4 (Score 4 = >80% inhibition) | – | CN1CC(=O)NC/C(Cl)=C/c2cc(ccn2)-c2ncnc(n2)Nc2cccc(c2)C1 [Compound 2]
12 | 3 (Score 3 = 60-80% inhibition) | 100 to 1000 nM | 3 (Score 3 = 60-80% inhibition) | 4 (Score 4 = >80% inhibition) | 4 (Score 4 = >80% inhibition) | 4 (Score 4 = >80% inhibition) | – | CN1CCC(=O)NCCCc2cc(ccn2)-c2ncnc(n2)Nc2cccc(c2)C1 [Compound 3]
13 | 4 (Score 4 = >80% inhibition) | 10 to 100 nM | 4 (Score 4 = >80% inhibition) | 4 (Score 4 = >80% inhibition) | 4 (Score 4 = >80% inhibition) | 4 (Score 4 = >80% inhibition) | – | O=C1CCN2CCN(CC2)Cc2cccc(c2)Nc2ncnc(n2)-c2ccnc(c2)CCCN1 [Compound 35]

More lines, now with the values behind:

Row | SMILES | C3.5 score (CDK3/cyclinE (h)) | IC50 (GSK-3α) | C3.6 score (CDK5/p35 human) | C3.8 score (CDK7/cyclinH/MAT1 (h)) | C3.4 score (CDK2/cyclinE (h)) | C3.2 score (CDK1/cyclinB (h)) | C1 Score α (GSK-3α)
14 | O=C1NCCCc2cccc(c2)-c2ncnc(n2)Nc2cccc(c2)CN[C@H]1CO [Compound 46] | 4 (Score 4 = >80% inhibition) | < 10 nM | 4 (Score 4 = >80% inhibition) | 1 (Score 1 = 10-30% inhibition) | 4 (Score 4 = >80% inhibition) | 4 (Score 4 = >80% inhibition) | –
15 | CCN1CC(=O)NCCCc2cccc(c2)-c2ncnc(n2)Nc2cccc(c2)C1 [Compound 54] | 2 (Score 2 = 30-60% inhibition) | < 10 nM | 3 (Score 3 = 60-80% inhibition) | 1 (Score 1 = 10-30% inhibition) | 4 (Score 4 = >80% inhibition) | 3 (Score 3 = 60-80% inhibition) | –
16 | O=C1CN2CCN(CC2)Cc2cc(Cl)cc(c2)Nc2ncnc(n2)-c2ccnc(c2)CCCN1 [Compound 41] | 3 (Score 3 = 60-80% inhibition) | < 10 nM | 3 (Score 3 = 60-80% inhibition) | 2 (Score 2 = 30-60% inhibition) | 4 (Score 4 = >80% inhibition) | 4 (Score 4 = >80% inhibition) | –
17 | O=C1NCCCc2cc(ccc2F)-c2ncnc(n2)Nc2cc(Cl)cc(c2)CN[C@H]1CO [Compound 71] | 4 (Score 4 = >80% inhibition) | < 10 nM | 4 (Score 4 = >80% inhibition) | 4 (Score 4 = >80% inhibition) | 4 (Score 4 = >80% inhibition) | 4 (Score 4 = >80% inhibition) | –
18 | O=C1NCCCc2cncc(c2)-c2ncnc(n2)Nc2cccc(c2)CN[C@H]1CO [Compound 81] | 3 (Score 3 = 60-80% inhibition) | < 10 nM | 3 (Score 3 = 60-80% inhibition) | 1 (Score 1 = 10-30% inhibition) | 4 (Score 4 = >80% inhibition) | 4 (Score 4 = >80% inhibition) | –
19 | CN1CCN(CCN2CCC(=O)NCCCc3cc(ccn3)-c3ncnc(n3)Nc3cccc(c3)C2)CC1 [Compound 11] | 1 (Score 1 = 10-30% inhibition) | 100 to 1000 nM | 1 (Score 1 = 10-30% inhibition) | 1 (Score 1 = 10-30% inhibition) | 1 (Score 1 = 10-30% inhibition) | 1 (Score 1 = 10-30% inhibition) | –
20 | O=C1CN2CCN(CC2)Cc2cccc(c2)Nc2ncnc(n2)-c2ccc(F)c(c2)CCCN1 [Compound 66] | 3 (Score 3 = 60-80% inhibition) | < 10 nM | 3 (Score 3 = 60-80% inhibition) | 1 (Score 1 = 10-30% inhibition) | 4 (Score 4 = >80% inhibition) | 4 (Score 4 = >80% inhibition) | –
21 | CCN1CC(=O)NCCCc2cc(ccn2)-c2ncnc(n2)Nc2cc(Cl)cc(c2)C1 [Compound 34] | 4 (Score 4 = >80% inhibition) | < 10 nM | 4 (Score 4 = >80% inhibition) | 2 (Score 2 = 30-60% inhibition) | 4 (Score 4 = >80% inhibition) | 4 (Score 4 = >80% inhibition) | –
